In patent US20080312330A1, “Methods for Reducing Mortality and Morbidity by Postoperative Administration of a Pharmacologic Cardiovascular Agent” (priority 1996, published 2008):
Values joined by “and” are separate entries in the source; they are usually repeats but may differ in a detail not shown here. Equal values may be shown once.

Experiments:
[1] = test system: patients with, or at risk for coronary artery disease and scheduled for elective noncardiac surgery; experiment: Randomized, blinded, placebo-controlled trial: mortality and cardiovascular outcomes over two years following noncardiac surgery; assay type: in vivo
Excerpt: Eligible patients included those with, or at risk for coronary artery disease and scheduled for elective noncardiac surgery requiring general anesthesia at the San Francisco Veterans Affairs Medical Center. The specific inclusion and exclusion criteria have been described previously (Mangano et al., 1990, N. Eng. J. Med. 323:1781-1788; Mangano et al., 1992, JAMA 268:233-239).
(§1) Patients were randomized to receive either atenolol “TENORMIN” (Zeneca Pharmaceuticals) or placebo prior to induction of anesthesia, immediately following surgery, and daily throughout their hospitalization (up to 7 days). Drug assignment, study physicians, treating clinicians, and data analysis personnel were blinded to study group throughout all phases of this trial.
(§2) Intravenous preparation consisted of two-10-ml syringes, each containing 5 mg atenolol or placebo; oral preparation consisted of two 50 mg tablets of atenolol, or two placebo tablets. Approximately one hour prior to surgery, patients entered the preoperative area and blood pressure was recorded with an automated cuff and 5-lead continuous electrocardiograph. Thirty-minutes prior to entry into the operating room, intravenous administration of study drug began. Exclusion criteria for study drug administration were heart rate <55 bpm, systolic blood pressure <100 mm Hg, or evidence of congestive heart failure, third degree heart block, or bronchospasm (ISIS-I protocol, 1986, Lancet 2:56-66). […] Immediately following surgery, the study drug was again given using the identical technique applied prior to surgery. On the morning of the first postoperative day, and daily thereafter until the patient was discharged from the hospital (up to a maximum of seven days), patients received study drug every 12 hours using the same technique for intravenous infusion, or orally (if able) at which time a tablet of atenolol (0, 50 or 100 mg) or placebo was given daily. If heart rate was >65 bpm and systolic blood pressure >100 mm Hg, 100 mg atenolol (or placebo) was given orally; if heart rate was >55 but <65 bpm and systolic blood pressure >100 mm Hg, 50 mg atenolol (or placebo) was administered; if heart rate was <55 bpm or systolic blood pressure <100 mm Hg, 0 mg atenolol (or placebo) was given. No treating clinician was allowed to observe study drug administration either prior to, or after, surgery.
(§3) All patients received general anesthesia with endotracheal intubation; preoperative medications were continued until the time of surgery, with beta-blockers replaced by study drug on the morning of surgery. There were no other protocol-based restrictions of anesthetic or surgical technique, and clinical decisions were not controlled by study protocol. Perioperative information was recorded and analyzed for possible confounding effects, and included: type and duration of surgery, anesthetic techniques, fluid and blood loss and replacement, cardiovascular medications, hemodynamics, electrocardiographic data, and adverse events.
At six months, one year and two years following surgery, study physicians conducted scheduled research study visits that were independent of usual clinical care.

[2] = test system: patients with, or at risk for coronary artery disease and scheduled for elective noncardiac surgery; experiment: Same trial: in-hospital tolerance, hemodynamics and in-hospital deaths during study drug administration
Experimental: as §1, §2, §3
At six months, one year and two years following surgery, study physicians conducted scheduled research study visits that were independent of usual clinical care. Data collected during each visit included history and physical examination, a 12-lead electrocardiogram, and review of all medical records, medications and hospital admissions. Cardiac death was diagnosed if the patient died of either a myocardial infarction, dysrhythmia or congestive heart failure caused primarily by a cardiac condition.

[3] = long-term deaths, one line per patient of the atenolol group

For CC(C)NCC(O)COc1ccc(CC(N)=O)cc1 (stereo not drawn) [atenolol], the “HAZARDS RATIO, two-year mortality, multivariate models” value ([1]; Cox multivariate, 30 deaths among 200 patients) was 0.5, the “HAZARDS RATIO, two-year mortality, univariable models” value ([1]; Cox univariable, 30 deaths among 200 patients) was 0.4 and the “hazard ratio, survival in diabetics at two years” value ([1]; diabetics, two years, P=0.03) was 0.25. The “improvement of survival in diabetics at two years” value ([1]; diabetics, two years, P=0.03) was “approximately 75%”, the “deaths over the first 6-8 months” value ([1]; first 6-8 months, noncardiac, placebo 10 deaths with 7 cardiac-related, P<0.001) was “one” and the “CAUSE OF DEATH” value [1, 3] was “Respiratory failure and Ventricular tachycardia and Severe CAD, sepsis and Sepsis, ALS and Metastatic renal CA and CHF post CABG and ARDS and Cardiac arrest, lung CA and Metastatic squamous cell CA, larynx, lung”. The “TIME TO DEATH” value [1, 3] was 237 days and 295 days and 327 days and 385 days and 416 days and 481 days and 529 days and 582 days and 656 days, the “decrease in the rate of cardiac events within one year” value ([1]; one year, versus placebo) was 3 fold and the “cardiac events within one year following surgery” value ([1]; one year, placebo 22 patients, P=0.003) was 7 patients. For the same molecule, the time-to-first adverse event ([1]; placebo group 6 days) was 158 days, the “time to first death” value ([1]; placebo group 19 days) was 237 days and the “cardiac events within six months following surgery” value ([1]; six months, placebo 12 patients, P<0.001) was 0 patients. For the same molecule, the “cardiovascular event-free survival of patients (FIG. 2)” value ([1]; two years after surgery) was “increases cardiovascular event-free survival of patients for two years after surgery”, the “survival of patients (FIG. 1)” value ([1]; two years after surgery) was “increases the survival of patients for two years after surgery” and the “decrease in the rate of cardiac events within two years” value ([1]; two years, versus placebo) was 2 fold. For the same molecule, the “reduction in all-cause mortality” value ([1]; two years, versus placebo, P=0.019) was 57%, the “reduction in cardiac mortality” value ([1]; two years, versus placebo, P=0.033) was 67% and the “cardiac-related deaths over the two-year outcome period” value ([1]; two years, placebo 12 cardiac) was 4 deaths. For the same molecule, the “deaths (all-cause) over the two-year outcome period” value ([1]; two years, placebo 21 deaths, P=0.019) was 9 deaths, the “cardiac events within two years following surgery” value ([1]; two years, placebo 32 patients, P=0.008) was 16 patients and the “noncardiac deaths secondary to metastatic cancer during hospitalization” value ([2]; during hospitalization) was “two”. The “noncardiac deaths with pulmonary failure secondary to massive infusion for fluid loss during hospitalization” value ([2]; during hospitalization) was “one”, the “cardiac deaths secondary to myocardial infarction during hospitalization” value ([2]; during hospitalization, placebo two) was “one” and the “average heart rate during treatment” value ([2]; during treatment, placebo 87 bpm, P<0.001) was 75 bpm. For the same molecule, the “maximum heart rate during treatment” value ([2]; during treatment, placebo 130 bpm, P<0.001) was 113 bpm, the “patients tolerating the full dose” value ([2]; human, in vivo) was “more than 60%” and the “patients who tolerated administration” value ([2]; human, in vivo) was “More than 85%”. For the same molecule, the “patients with 20% or more decrease in systolic blood pressure or heart rate” value ([2]; human, in vivo, iv) was “approximately 10%”, the “patients who developed systolic blood pressure <90 mm Hg or heart rate <40 bpm, or required therapy” value ([2]; in vivo, iv) was “no patient” and the “incidence of hypotension or bradycardia, or other events” value ([2]; in vivo, po) was “not associated with an increased incidence”.
